{"source": "patent US6691638B2", "about": "“Methods for gamete production in birds” (North Carolina State University, priority 2000, dated 2004)", "origin": "cited, not measured here", "key": {"quail eggs": {"test_system": "quail eggs", "details": "albumen suspension of BU; cited from earlier work"}, "PGCs [1]": {"test_system": "PGCs", "details": "administration in rats; cited from earlier work"}, "gonadal germ cells": {"test_system": "gonadal germ cells", "details": "cited from earlier work"}, "PGCs [2]": {"test_system": "PGCs", "details": "cited from earlier work"}, "[3]": {"details": "in vivo; cited from earlier work"}, "[4]": {"details": "forms a suspension; cited from earlier work"}, "chick embryos": {"test_system": "chick embryos", "details": "injection into the yolk sac; cited from earlier work"}, "germ cells": {"test_system": "germ cells", "details": "100 μg BU in sesame oil; cited from earlier work"}, "[5]": {"details": "50 μg BU suspended in sesame oil, 6 day-old chick embryos"}, "[6]": {"details": "after injection of germinal crescent cells into BU-treated embryos"}}}
{"smiles": "CS(=O)(=O)OCCCCOS(C)(=O)=O", "note": "[BU, 1,4-butanediol dimethane sulfonate]", "values": [{"measurement": "Effect on hatchability", "setting": "quail eggs", "value": "significant declines in hatchability"}, {"measurement": "Effect on development of PGCs", "setting": "PGCs [1]", "value": "markedly impair"}, {"measurement": "Increase of the rate of germline chimerism", "setting": "gonadal germ cells; compared to non-BU treated embryos, estimated", "value": 3.5, "unit": "fold"}, {"measurement": "Effect on gonadal germ cells in chick embryos", "setting": "gonadal germ cells; injection of 25, 50 and 250 μg BU", "value": "significantly reduced"}, {"measurement": "Reduction of PGCs in the left gonad", "setting": "PGCs [2]; [5]", "value": 75, "unit": "%"}, {"measurement": "Reduction of PGCs in the right gonad", "setting": "PGCs [2]; [5]", "value": 78, "unit": "%"}, {"measurement": "PGC numbers, left gonad, % of controls", "setting": "PGCs [2]; [6]", "value": "72 % of controls"}, {"measurement": "PGC numbers, right gonad, % of controls", "setting": "PGCs [2]; [6]", "value": "115 % of controls"}, {"measurement": "Half-life", "setting": "[3]", "value": "approximately 10 hours"}, {"measurement": "Solubility in aqueous solutions", "setting": "[4]", "value": "relatively insoluble"}, {"measurement": "Teratogenic effect", "setting": "chick embryos", "value": "multiple malformations"}, {"measurement": "Sterility index", "setting": "germ cells", "value": "≥ 95", "unit": "%"}]}
